Measured values published in publication PMC3125149, “SCYX-7158, an Orally-Active Benzoxaborole for the Treatment of Stage 2 Human African Trypanosomiasis” (PLoS Neglected Tropical Diseases, 2011).
Read-outs that look alike come from different tables or passages of the source.

Columns and labels:
T. b. brucei 427 = experiment: Time-kill assay (ATP content, CellTiter Glo); type: cell-based
Procedure: The assessment of oxaborole-mediated killing of T. b. brucei in vitro was conducted using the CellTiter Glo kit (Promega, Inc., Madison, WI) to measure trypanosome ATP content as a real-time indicator of viability. Test compounds were serially diluted from 5 to 0.01 µg/mL into white wall-clear bottom 96-well plates (Corning Inc., Lowell, MA) containing HMI-9 media. 1×10^4 trypanosomes were added to each well. At specified intervals, the CellTiter Glo reagent was added to lyse the parasites and the plates were incubated for 10 min in the dark. Luminescence was quantified using an EnVision plate reader. All determinations were done in duplicate. Time-kill parameters were determined from plots of parasite viability versus incubation time for each concentration tested.

[1] = Plasma protein binding by rapid equilibrium dialysis; type: in vitro ADME; conditions: for fraction unbound at 4 h: read-out: unbound fraction (fu)
Procedure: Binding to human or mouse plasma proteins or mouse brain homogenate was determined by rapid equilibrium dialysis (RED) (Pierce, Rockford, IL) using a 48-well plate-based format according to the manufacturer's instructions. Briefly, test compound at the required concentrations was added to fresh human or mouse plasma (Bioreclamation, Liverpool, NY) or freshly prepared mouse brain homogenate. Duplicate aliquots of each sample were transferred into the sample chambers of the RED devices, and dialysis buffer (BupH PBS) was added to the buffer chambers. The plates were sealed and incubated at 37°C for 4 h. After dialysis, samples collected from the buffer and tissue chambers were treated with ice-cold methanol (3 volumes for plasma, 4 volumes for brain) to precipitate proteins. The treated samples were centrifuged for 10 min at 3×10^3 g at 15°C. The supernatants were assayed for test compound by LC-MS/MS. Calibration standards and quality control samples were prepared in matched matrix and assayed with samples. Values for unbound and bound fractions and mass balance were calculated. Concordance of binding for each batch of plasma was confirmed by assay of warfarin, imipramine and carbamezapine. Acceptance criterion for mass balance was 70–120%.

[2] = Steady-state pharmacokinetics in T. brucei-infected mice; type: in vivo, mouse; conditions: for AUC(0-inf) / Cmax: mouse; for AUC(0-inf): read-out: AUC0-inf in brain tissue
Procedure: The blood distribution, CNS disposition and pharmacokinetics of SCYX-7158 were evaluated in infected or non-infected rodents following intravenous or oral administration of compounds. Pharmacokinetics and bioavailability of SCYX-7158 were also evaluated in non-infected beagle dogs and cynomolgus monkeys. In-life phases of non-infected rodent studies were performed at Vivisource (Waltham, MA); studies in non-naïve cynomolgus monkeys were performed by SNBL USA (Everett, WA).
Samples of plasma (25 µL) and CSF (10 µL) were treated with 3 volumes of ice-cold methanol (containing 25 ng/mL of 2-chloro-4-fluoro-N-(1-hydroxy-1,3-dihyrobenzo[c][1], [2]oxaborol-6-yl)benzamide or 25 ng/mL d6-SCYX-7158 as an internal standard) to precipitate proteins. Treated samples were gently mixed at room temperature for 10 min, and then centrifuged at approximately 3000×g for 15 min at 15°C. The supernatants were transferred to 96-well plates or HPLC vials for analysis by LC-MS/MS.
Pharmacokinetic parameters were calculated from composite mean plasma or tissue data using non-compartmental (oral and intravenous routes) and bi-exponential (intravenous route) analyses in Microsoft Excel.

In the case of `CC1(C)OB(O)c2cc(NC(=O)c3ccc(F)cc3C(F)(F)F)ccc21` [SCYX-7158], the reduction in viability (T. b. brucei 427; within 8 h of exposure at 1.25 µg/mL (about 2 times the MIC)) is reported as “greater than 50%”, the parasites killed (T. b. brucei 427; within 24 h of exposure, 1.25 µg/mL) is reported as greater than 99% and the fraction unbound at 4 h, 1 µg/mL ([1]; human plasma) is reported as 0.013. The fraction unbound at 4 h, 50 µg/mL ([1]; human plasma) was 0.055, the fraction unbound at 4 h ([1]; mouse, mouse plasma at the MIC (∼0.6 µg/mL)) was 0.003 and the fraction unbound at 4 h ([1]; mouse, mouse plasma at ∼15 µg/mL (Cmax at steady-state)) was 0.032. For the same compound, the fraction unbound at 4 h, 1 µg/mL ([1]; mouse, mouse plasma) was 0.0032, the fraction unbound at 4 h, 50 µg/mL ([1]; mouse, mouse plasma) was 0.0463 and the “time brain concentrations maintained at or above the MIC (0.6 µg/mL)” value ([2]; 25 mg/kg dose) was roughly 24 h. For the same compound, the AUC(0-inf) ([2]; Swiss Webster, brain, 12.5 mg/kg oral, 7 daily doses, infected mice) was 34200 ng·h/mL, the Cmax ([2]; Swiss Webster, brain, 12.5 mg/kg oral, 7 daily doses, infected mice, read-out: Cmax in brain tissue) was 6540 ng/mL and the AUC(0-inf) ([2]; Swiss Webster, brain, 25 mg/kg oral, 7 daily doses, infected mice) was 81500 ng·h/mL. The Cmax ([2]; Swiss Webster, brain, 25 mg/kg oral, 7 daily doses, infected mice, read-out: Cmax in brain tissue) was 12000 ng/mL and the Cmax ([2]; plasma, 25 mg/kg doses, read-out: plasma Cmax at steady-state) was roughly 15000 ng/mL.
